{"source": "ChEMBL document CHEMBL5338827", "about": "“Evolution and Discovery of Matrine Derivatives as a New Class of Anti-Hepatic Fibrosis Agents Targeting Ewing Sarcoma Breakpoint Region 1 (EWSR1)” (J Med Chem, 2023)", "key": {"LX-2 [1]": {"test_system": "LX-2", "assay": "Anti-fibrosis effect in human LX2 cells assessed as reduction in TGFbeta1-induced alpha-SMA protein expression at 10 to 20 uM measured for 24 hrs", "assay_type": "functional, cell-based", "details": "dose 10-20 µM"}, "Rattus norvegicus [2]": {"test_system": "Rattus norvegicus", "assay": "Anti-hepatic fibrosis activity in bile duct ligation rat model assessed as reduction in bile TBiL level at 100 mg/kg, po administered for 14 days", "assay_type": "functional", "details": "time 14 day"}, "Rattus norvegicus [3]": {"test_system": "Rattus norvegicus", "assay": "Anti-hepatic fibrosis activity in bile duct ligation rat model assessed as reduction in serum TBiL level in serum at 100 mg/kg, po administered for 14 days", "assay_type": "functional", "details": "time 14 day"}, "Rattus norvegicus [4]": {"test_system": "Rattus norvegicus", "assay": "Anti-hepatic fibrosis activity in bile duct ligation rat model assessed as reduction in serum TBA level at 100 mg/kg, po administered for 14 days", "assay_type": "functional", "details": "time 14 day"}, "Rattus norvegicus [5]": {"test_system": "Rattus norvegicus", "assay": "Anti-hepatic fibrosis activity in bile duct ligation rat model assessed as reduction in […] level at 100 mg/kg, po administered for 14 days", "assay_type": "functional", "details": "time 14 day"}, "Rattus norvegicus [6]": {"test_system": "Rattus norvegicus", "assay": "Anti-hepatic fibrosis activity in bile duct ligation rat model assessed as reduction in AST level at 100 mg/kg, po administered for 14 days", "assay_type": "functional", "details": "time 14 day"}, "Rattus norvegicus [7]": {"test_system": "Rattus norvegicus", "assay": "Anti-hepatic fibrosis activity in bile duct ligation rat model assessed as reduction in ALT level at 100 mg/kg, po administered for 14 days", "assay_type": "functional", "details": "time 14 day"}, "[8]": {"target": "Collagen alpha-1(I) chain (Homo sapiens, UniProt P02452)", "sequence (P02452 whole entry)": "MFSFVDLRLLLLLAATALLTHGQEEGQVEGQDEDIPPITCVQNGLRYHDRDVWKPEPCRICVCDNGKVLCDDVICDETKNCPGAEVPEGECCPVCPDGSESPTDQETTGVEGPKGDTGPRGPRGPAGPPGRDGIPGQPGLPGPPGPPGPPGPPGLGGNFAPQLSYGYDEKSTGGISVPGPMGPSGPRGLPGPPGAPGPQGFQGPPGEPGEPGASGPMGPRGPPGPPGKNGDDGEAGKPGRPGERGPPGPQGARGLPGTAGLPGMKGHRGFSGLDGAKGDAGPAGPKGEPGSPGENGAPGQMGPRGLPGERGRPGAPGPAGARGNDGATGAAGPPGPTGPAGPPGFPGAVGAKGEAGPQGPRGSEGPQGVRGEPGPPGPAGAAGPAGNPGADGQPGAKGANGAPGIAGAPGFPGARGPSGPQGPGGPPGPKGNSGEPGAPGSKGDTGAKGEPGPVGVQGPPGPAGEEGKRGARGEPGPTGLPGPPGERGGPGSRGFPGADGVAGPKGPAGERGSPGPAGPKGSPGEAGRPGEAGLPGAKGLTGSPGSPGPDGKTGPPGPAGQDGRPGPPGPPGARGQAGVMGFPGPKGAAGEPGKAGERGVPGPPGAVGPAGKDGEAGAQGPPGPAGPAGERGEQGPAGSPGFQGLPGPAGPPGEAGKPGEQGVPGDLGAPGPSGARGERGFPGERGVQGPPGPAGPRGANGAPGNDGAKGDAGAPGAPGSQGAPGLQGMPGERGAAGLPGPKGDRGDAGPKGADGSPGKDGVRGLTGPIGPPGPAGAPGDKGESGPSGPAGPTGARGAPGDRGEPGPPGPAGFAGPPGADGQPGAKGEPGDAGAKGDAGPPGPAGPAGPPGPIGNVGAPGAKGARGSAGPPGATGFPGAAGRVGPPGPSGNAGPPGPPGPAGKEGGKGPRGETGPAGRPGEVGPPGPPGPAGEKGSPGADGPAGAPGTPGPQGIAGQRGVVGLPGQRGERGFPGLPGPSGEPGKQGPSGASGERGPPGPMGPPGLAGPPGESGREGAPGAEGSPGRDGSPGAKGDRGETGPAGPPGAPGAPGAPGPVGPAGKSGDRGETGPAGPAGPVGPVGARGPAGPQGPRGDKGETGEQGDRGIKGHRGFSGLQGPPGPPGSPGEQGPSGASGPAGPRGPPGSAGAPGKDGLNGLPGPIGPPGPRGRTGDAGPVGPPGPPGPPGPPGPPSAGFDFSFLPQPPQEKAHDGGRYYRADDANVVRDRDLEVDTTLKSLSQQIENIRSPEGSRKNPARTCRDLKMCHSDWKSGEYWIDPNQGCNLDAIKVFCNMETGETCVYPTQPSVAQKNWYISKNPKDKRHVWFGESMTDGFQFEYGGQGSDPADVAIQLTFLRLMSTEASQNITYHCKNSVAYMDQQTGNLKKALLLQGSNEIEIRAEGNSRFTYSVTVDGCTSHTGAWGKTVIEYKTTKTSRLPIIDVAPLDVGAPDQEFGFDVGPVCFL", "assay": "Inhibition of COL1A1 (unknown origin) expressed in human LX2 cells at 80 uM measured for 24 hrs relative to control", "assay_type": "cell-based"}, "LX-2 [9]": {"test_system": "LX-2", "assay": "Anti-hepatic fibrosis activity in human LX2 cells assessed as inhibition of TGF-beta1 induced COL1A1 mRNA expression at 20 uM incubated for 24 hrs by qRT-PCR analysis", "assay_type": "functional, cell-based"}, "LX-2 [10]": {"test_system": "LX-2", "assay": "Anti-hepatic fibrosis activity in human LX2 cells assessed as inhibition of TGF-beta1 induced alpha-SMA mRNA expression at 20 uM incubated for 24 hrs by qRT-PCR analysis", "assay_type": "functional, cell-based"}, "LX-2 [11]": {"test_system": "LX-2", "assay": "Anti-hepatic fibrosis activity in human LX2 cells assessed as inhibition of TGFbeta1-induced COL1A1 protein expression at 20 uM incubated for 24 hrs by western blot analysis", "assay_type": "functional, cell-based"}, "LX-2 [12]": {"test_system": "LX-2", "assay": "Anti-fibrosis effect in human LX2 cells assessed as reduction in TGFbeta1-induced integrin subunit alpha-V protein expression at 10 to 20 uM measured for 24 hrs", "assay_type": "functional, cell-based", "details": "dose 10-20 µM"}, "HSC-T6 [13]": {"test_system": "HSC-T6", "assay": "Anti-fibrosis effect in HSC-T6 cells assessed as reduction in TGFbeta1-induced alpha-SMA protein expression measured for 24 hrs", "assay_type": "functional, cell-based", "details": "Rattus norvegicus, dose 2.5-20 µM"}, "HSC-T6 [14]": {"test_system": "HSC-T6", "assay": "Anti-fibrosis effect in HSC-T6 cells assessed as reduction in TGFbeta1-induced fibronectin protein expression measured for 24 hrs", "assay_type": "functional, cell-based", "details": "Rattus norvegicus, dose 2.5-20 µM"}, "HSC-T6 [15]": {"test_system": "HSC-T6", "assay": "Anti-fibrosis effect in HSC-T6 cells assessed as reduction in TGFbeta1-induced integrin subunit alpha-V protein expression measured for 24 hrs", "assay_type": "functional, cell-based", "details": "Rattus norvegicus, dose 2.5-20 µM"}, "Rattus norvegicus [16]": {"test_system": "Rattus norvegicus", "assay": "Anti-hepatic fibrosis activity in bile duct ligation rat model assessed as reduction hydroxyproline level at 100 mg/kg, po administered for 14 days", "assay_type": "functional, organism-based", "details": "time 14.0 day"}, "Rattus norvegicus [17]": {"test_system": "Rattus norvegicus", "assay": "Anti-hepatic fibrosis activity in bile duct ligation rat model assessed as reduction in CoL1A1 mRNA expression at 100 mg/kg, po administered for 14 days by qRT-PCR analysis", "assay_type": "functional, organism-based", "details": "time 14.0 day"}, "Rattus norvegicus [18]": {"test_system": "Rattus norvegicus", "assay": "Anti-hepatic fibrosis activity in bile duct ligation rat model assessed as reduction in MMP2 mRNA expression at 100 mg/kg, po administered for 14 days by qRT-PCR analysis", "assay_type": "functional, organism-based", "details": "time 14.0 day"}, "Rattus norvegicus [19]": {"test_system": "Rattus norvegicus", "assay": "Anti-hepatic fibrosis activity in bile duct ligation rat model assessed as reduction in ITGAV mRNA expression at 100 mg/kg, po administered for 14 days by qRT-PCR analysis", "assay_type": "functional, organism-based", "details": "time 14.0 day"}, "Rattus norvegicus [20]": {"test_system": "Rattus norvegicus", "assay": "Anti-hepatic fibrosis activity in bile duct ligation rat model assessed as reduction in CTGF mRNA expression at 100 mg/kg, po administered for 14 days by qRT-PCR analysis", "assay_type": "functional, organism-based", "details": "time 14.0 day"}, "Mus musculus [21]": {"test_system": "Mus musculus", "assay": "Anti-hepatic fibrosis activity in MDR2 knockout liver injury mouse model assessed as reduction in ALT level at 100 mg/kg, po administered once a day for 4 weeks (reference value: 397+/-123.30 U/L)", "assay_type": "functional"}, "Mus musculus [22]": {"test_system": "Mus musculus", "assay": "Anti-hepatic fibrosis activity in MDR2 knockout liver injury mouse model assessed as reduction in AST level at 100 mg/kg, po administered once a day for 4 weeks (reference value: 400+/-156.78 U/L)", "assay_type": "functional"}, "Mus musculus [23]": {"test_system": "Mus musculus", "assay": "Anti-hepatic fibrosis activity in MDR2 knockout liver injury mouse model assessed as reduction in LDH level at 100 mg/kg, po administered once a day for 4 weeks (reference value: 1080.83+/-182.40 U/L)", "assay_type": "functional"}, "Mus musculus [24]": {"test_system": "Mus musculus", "assay": "Anti-hepatic fibrosis activity in MDR2 knockout liver injury mouse model assessed as reduction in serum TBiL level at 100 mg/kg, po administered once a day for 4 weeks (reference value: 8.72+/-1.72 micromol/L)", "assay_type": "functional"}, "Mus musculus [25]": {"test_system": "Mus musculus", "assay": "Anti-hepatic fibrosis activity in MDR2 knockout liver injury mouse model assessed as reduction in ACTA2 mRNA expression at 100 mg/kg, po administered once a day for 4 weeks by qRT-PCR analysis", "assay_type": "functional, organism-based"}, "Mus musculus [26]": {"test_system": "Mus musculus", "assay": "Anti-hepatic fibrosis activity in MDR2 knockout liver injury mouse model assessed as reduction in CTGF mRNA expression at 100 mg/kg, po administered once a day for 4 weeks by qRT-PCR analysis", "assay_type": "functional, organism-based"}, "Mus musculus [27]": {"test_system": "Mus musculus", "assay": "Anti-hepatic fibrosis activity in MDR2 knockout liver injury mouse model assessed as reduction in MMP2 protein expression at 100 mg/kg, po administered once a day for 4 weeks by Western blot analysis", "assay_type": "functional, organism-based"}, "Mus musculus [28]": {"test_system": "Mus musculus", "assay": "Anti-hepatic fibrosis activity in MDR2 knockout liver injury mouse model assessed as reduction in alpha-SMA protein expression at 100 mg/kg, po administered once a day for 4 weeks by Western blot analysis", "assay_type": "functional, organism-based"}, "Mus musculus [29]": {"test_system": "Mus musculus", "assay": "Anti-hepatic fibrosis activity in MDR2 knockout liver injury mouse model assessed as reduction in CTGF protein expression at 100 mg/kg, po administered once a day for 4 weeks by Western blot analysis", "assay_type": "functional, organism-based"}, "Mus musculus [30]": {"test_system": "Mus musculus", "assay": "Anti-hepatic fibrosis activity in MDR2 knockout liver injury mouse model assessed as reduction in bile duct hyperplasia at 100 mg/kg, po administered once a day for 4 weeks by H and E staining analysis", "assay_type": "functional, organism-based"}, "Mus musculus [31]": {"test_system": "Mus musculus", "assay": "Anti-hepatic fibrosis activity in MDR2 knockout liver injury mouse model assessed as reduction in collagen deposition at 100 mg/kg, po administered once a day for 4 weeks by H and E staining analysis", "assay_type": "functional, organism-based"}, "[32]": {"target": "T1, Secreted frizzled-related protein 1 (Homo sapiens) (UniProt Q8N474)", "T1 sequence (whole entry)": "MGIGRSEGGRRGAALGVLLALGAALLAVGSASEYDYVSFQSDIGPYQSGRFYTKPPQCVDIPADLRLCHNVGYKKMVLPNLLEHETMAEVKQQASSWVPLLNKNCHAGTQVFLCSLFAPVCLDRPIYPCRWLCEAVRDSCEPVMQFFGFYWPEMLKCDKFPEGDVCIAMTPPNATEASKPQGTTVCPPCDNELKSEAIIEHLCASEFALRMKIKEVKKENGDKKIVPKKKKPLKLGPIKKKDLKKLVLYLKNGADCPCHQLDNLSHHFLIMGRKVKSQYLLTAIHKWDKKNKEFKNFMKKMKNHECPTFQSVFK", "assay": "Binding affinity to SFRP1 (unknown origin) in human LX2 cells by streptavidin bead based pull-down assay", "assay_type": "cell-based"}}, "note": "The source made the active and inactive calls. The calls are words filed in the database; no cut-off is given here."}
{"smiles": "CCCC[C@@H]1[C@H]2CCCN3CCC[C@@H](CN1C(=O)Nc1c(CC)cccc1CC)[C@@H]23", "values": [{"measurement": "Activity", "setting": "LX-2 [1]", "value": "Active"}, {"measurement": "Activity", "setting": "Rattus norvegicus [2]", "value": 4.91, "unit": "µmol/L"}, {"measurement": "Activity", "setting": "Rattus norvegicus [3]", "value": 92.48, "unit": "µmol/L"}, {"measurement": "Activity", "setting": "Rattus norvegicus [4]", "value": 173, "unit": "µmol/L"}, {"measurement": "Activity", "setting": "Rattus norvegicus [5]", "value": 36.5, "unit": "U/L"}, {"measurement": "Activity", "setting": "Rattus norvegicus [6]", "value": 447.83, "unit": "U/L"}, {"measurement": "Activity", "setting": "Rattus norvegicus [7]", "value": 60.67, "unit": "U/L"}, {"measurement": "inhibition", "setting": "[8]", "value": 99.8, "unit": "%"}, {"measurement": "Activity", "setting": "LX-2 [9]", "value": "Active"}, {"measurement": "Activity", "setting": "LX-2 [10]", "value": "Active"}, {"measurement": "Activity", "setting": "LX-2 [11]", "value": "Active"}, {"measurement": "Activity", "setting": "LX-2 [12]", "value": "Active"}, {"measurement": "Activity", "setting": "HSC-T6 [13]", "value": "Dose-Dependent Effect"}, {"measurement": "Activity", "setting": "HSC-T6 [14]", "value": "Dose-Dependent Effect"}, {"measurement": "Activity", "setting": "HSC-T6 [15]", "value": "Dose-Dependent Effect"}, {"measurement": "Activity", "setting": "Rattus norvegicus [16]", "value": "Active"}, {"measurement": "Activity", "setting": "Rattus norvegicus [17]", "value": "Active"}, {"measurement": "Activity", "setting": "Rattus norvegicus [18]", "value": "Active"}, {"measurement": "Activity", "setting": "Rattus norvegicus [19]", "value": "Active"}, {"measurement": "Activity", "setting": "Rattus norvegicus [20]", "value": "Active"}, {"measurement": "Activity", "setting": "Mus musculus [21]", "value": 295.2, "unit": "U/L"}, {"measurement": "Activity", "setting": "Mus musculus [22]", "value": 286.6, "unit": "U/L"}, {"measurement": "Activity", "setting": "Mus musculus [23]", "value": 884, "unit": "U/L"}, {"measurement": "Activity", "setting": "Mus musculus [24]", "value": 6.58, "unit": "µmol/L"}, {"measurement": "Activity", "setting": "Mus musculus [25]", "value": "Active"}, {"measurement": "Activity", "setting": "Mus musculus [26]", "value": "Active"}, {"measurement": "Activity", "setting": "Mus musculus [27]", "value": "Active"}, {"measurement": "Activity", "setting": "Mus musculus [28]", "value": "Active"}, {"measurement": "Activity", "setting": "Mus musculus [29]", "value": "Active"}, {"measurement": "Activity", "setting": "Mus musculus [30]", "value": "Active"}, {"measurement": "Activity", "setting": "Mus musculus [31]", "value": "Active"}, {"measurement": "Activity", "setting": "[32]", "value": "inactive"}]}
